The record followed here is patent publication US20240059671A1, “TYROSINE KINASE 2 (TYK2) DEGRADATION COMPOUNDS AND METHODS OF USE” (CULLGEN (SHANGHAI), INC., priority 2020, published 2024).

The target in this assay is TYK2 (Homo sapiens, UniProt P29597). The experiment in a line: TYK2 protein degradation in MOLT-4 cells by immunoblotting. To be noted: MOLT-4 cells, 0.5 μM, 24 hours. The format is cell-based. On the set-up: endogenous in cells; host or cells: MOLT-4. How it is done: MOLT-4 cells were treated with compounds at 0.5 and 5 μM concentrations for 24 hours.
Sequence of TYK2 (P29597 whole entry): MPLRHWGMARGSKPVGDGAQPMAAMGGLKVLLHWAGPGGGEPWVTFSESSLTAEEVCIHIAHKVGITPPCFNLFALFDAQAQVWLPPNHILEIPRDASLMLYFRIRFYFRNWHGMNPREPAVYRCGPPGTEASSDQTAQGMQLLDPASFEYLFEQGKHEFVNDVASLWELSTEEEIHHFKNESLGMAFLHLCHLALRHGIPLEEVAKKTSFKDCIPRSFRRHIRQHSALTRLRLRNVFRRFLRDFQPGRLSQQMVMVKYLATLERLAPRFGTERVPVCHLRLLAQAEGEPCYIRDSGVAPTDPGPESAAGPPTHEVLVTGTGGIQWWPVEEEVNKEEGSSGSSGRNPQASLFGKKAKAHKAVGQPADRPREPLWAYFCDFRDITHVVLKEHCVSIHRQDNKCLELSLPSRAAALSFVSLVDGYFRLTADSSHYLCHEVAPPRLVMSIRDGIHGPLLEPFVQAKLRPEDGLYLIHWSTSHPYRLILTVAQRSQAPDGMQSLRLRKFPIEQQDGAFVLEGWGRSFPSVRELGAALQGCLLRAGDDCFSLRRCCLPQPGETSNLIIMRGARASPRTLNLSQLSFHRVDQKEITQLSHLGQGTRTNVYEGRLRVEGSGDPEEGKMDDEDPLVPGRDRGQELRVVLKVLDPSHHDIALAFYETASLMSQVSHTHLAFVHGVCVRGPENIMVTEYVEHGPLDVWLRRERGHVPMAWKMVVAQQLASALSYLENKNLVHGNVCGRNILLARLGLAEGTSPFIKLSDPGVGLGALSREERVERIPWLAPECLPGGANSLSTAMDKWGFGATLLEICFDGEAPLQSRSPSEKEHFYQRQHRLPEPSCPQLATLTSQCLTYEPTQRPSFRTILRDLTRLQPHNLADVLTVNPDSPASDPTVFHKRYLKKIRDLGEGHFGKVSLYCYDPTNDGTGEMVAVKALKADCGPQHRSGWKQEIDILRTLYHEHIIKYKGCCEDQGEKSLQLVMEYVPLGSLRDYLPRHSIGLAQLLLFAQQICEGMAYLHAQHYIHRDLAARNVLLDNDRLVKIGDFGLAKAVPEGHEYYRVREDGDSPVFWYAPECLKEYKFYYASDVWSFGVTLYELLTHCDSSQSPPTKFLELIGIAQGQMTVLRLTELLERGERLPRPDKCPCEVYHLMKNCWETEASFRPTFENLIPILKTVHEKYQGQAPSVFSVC
MOLT-4 cells were treated with CPD-038, CPD-039, and CPD-040 at 0.04, 0.2, 1, and 5 μM concentrations for 24 hours.
MOLT-4 or NOMO-1 cells were cultured at 37° C. with 5% CO2 in RPMI 1640 Medium supplemented with 10% fetal bovine serum. Cells were authenticated using the short tandem repeat (STR) assays. Mycoplasma test results were negative.
Cultured cells were washed with cold PBS once and lysed in cold RIPA buffer supplemented with protease inhibitors and phosphatase inhibitors (Beyotime Biotechnology). The solutions were then incubated at 4° C. for 30 minutes with gentle agitation to fully lyse cells. Cell lysates were centrifuged at 13,000 rpm for 10 minutes at 4° C. and pellets were discarded. Total protein concentrations in the lysates were determined by BCA assays (Beyotime Biotechnology). Cell lysates were mixed with Laemmli loading buffer to 1× and heated at 99° C. for 5 min. Proteins were resolved on SDS-PAGE and visualized by chemiluminescence. Images were taken by a ChemiDoc MP Imaging system (Bio-Rad). Protein bands were quantitated using the accompanied software provided by Bio-Rad.
The percentage of TYK2 protein degradation of each compound at 0.5 and 5 μM determined in MOLT-4 cells as described in Methods.
On the technique in general: A western blot detects proteins with antibodies after separation by electrophoresis.

On to `CNC(=O)c1nnc(NC(=O)C2CC2)cc1Nc1cccc(-c2ncn(CCNC(=O)CNc3cccc4c3C(=O)N(C3CCC(=O)NC3=O)C4=O)n2)c1OC` (centres unmarked) [CPD-001, 6-(Cyclopropanecarboxamido)-4-((3-(1-(2-(2-((2-(2,6-dioxopiperidin-3-yl)-1,3-dioxoisoindolin-4-yl)amino)acetamido)ethyl)-1H-1,2,4-triazol-3-yl)-2-methoxyphenyl)amino)-N-methylpyridazine-3-carboxamide], for which the “TYK2 Degradation (0.5 μM)” value is listed as at most 20%.

With `CNC(=O)c1nnc(NC(=O)C2CC2)cc1Nc1cccc(-c2ncn(CCNC(=O)CCNc3cccc4c3C(=O)N(C3CCC(=O)NC3=O)C4=O)n2)c1OC` (centres unmarked) [CPD-002, 6-(Cyclopropanecarboxamido)-4-((3-(1-(2-(3-((2-(2,6-dioxopiperidin-3-yl)-1,3-dioxoisoindolin-4-yl)amino)propanamido)ethyl)-1H-1,2,4-triazol-3-yl)-2-methoxyphenyl)amino)-N-methylpyridazine-3-carboxamide], the “TYK2 Degradation (0.5 μM)” value was at most 20%.

Take `CNC(=O)c1nnc(NC(=O)C2CC2)cc1Nc1cccc(-c2ncn(CCNC(=O)CCCNc3cccc4c3C(=O)N(C3CCC(=O)NC3=O)C4=O)n2)c1OC` (centres unmarked) [CPD-003, 6-(Cyclopropanecarboxamido)-4-((3-(1-(2-(4-((2-(2,6-dioxopiperidin-3-yl)-1,3-dioxoisoindolin-4-yl)amino)butanamido)ethyl)-1H-1,2,4-triazol-3-yl)-2-methoxyphenyl)amino)-N-methylpyridazine-3-carboxamide]: the “TYK2 Degradation (0.5 μM)” value was at most 20%.

On to `CNC(=O)c1nnc(NC(=O)C2CC2)cc1Nc1cccc(-c2ncn(CCNC(=O)CCCCNc3cccc4c3C(=O)N(C3CCC(=O)NC3=O)C4=O)n2)c1OC` (centres unmarked) [CPD-004, 6-(Cyclopropanecarboxamido)-4-((3-(1-(2-(5-((2-(2,6-dioxopiperidin-3-yl)-1,3-dioxoisoindolin-4-yl)amino)pentanamido)ethyl)-1H-1,2,4-triazol-3-yl)-2-methoxyphenyl)amino)-N-methylpyridazine-3-carboxamide], for which the “TYK2 Degradation (0.5 μM)” value is given as at most 20%.

With `CNC(=O)c1nnc(NC(=O)C2CC2)cc1Nc1cccc(-c2ncn(CCNC(=O)CCCCCNc3cccc4c3C(=O)N(C3CCC(=O)NC3=O)C4=O)n2)c1OC` (centres unmarked) [CPD-005, 6-(Cyclopropanecarboxamido)-4-((3-(1-(2-(6-((2-(2,6-dioxopiperidin-3-yl)-1,3-dioxoisoindolin-4-yl)amino)hexanamido)ethyl)-1H-1,2,4-triazol-3-yl)-2-methoxyphenyl)amino)-N-methylpyridazine-3-carboxamide], the “TYK2 Degradation (0.5 μM)” value was at most 20%.

`CNC(=O)c1nnc(NC(=O)C2CC2)cc1Nc1cccc(-c2ncn(CCNC(=O)CCCCCCNc3cccc4c3C(=O)N(C3CCC(=O)NC3=O)C4=O)n2)c1OC` (centres unmarked) [CPD-006, 6-(Cyclopropanecarboxamido)-4-((3-(1-(2-(7-((2-(2,6-dioxopiperidin-3-yl)-1,3-dioxoisoindolin-4-yl)amino)heptanamido)ethyl)-1H-1,2,4-triazol-3-yl)-2-methoxyphenyl)amino)-N-methylpyridazine-3-carboxamide]: the “TYK2 Degradation (0.5 μM)” value was at most 20%.

For `CNC(=O)c1nnc(NC(=O)C2CC2)cc1Nc1cccc(-c2ncn(CCNC(=O)CCCCCCCNc3cccc4c3C(=O)N(C3CCC(=O)NC3=O)C4=O)n2)c1OC` (centres unmarked) [CPD-007, 6-(Cyclopropanecarboxamido)-4-((3-(1-(2-(8-((2-(2,6-dioxopiperidin-3-yl)-1,3-dioxoisoindolin-4-yl)amino)octanamido)ethyl)-1H-1,2,4-triazol-3-yl)-2-methoxyphenyl)amino)-N-methylpyridazine-3-carboxamide], the “TYK2 Degradation (0.5 μM)” value was at most 20%.

With `CNC(=O)c1nnc(NC(=O)C2CC2)cc1Nc1cccc(-c2ncn(CCNC(=O)CCOCCNc3cccc4c3C(=O)N(C3CCC(=O)NC3=O)C4=O)n2)c1OC` (centres unmarked) [CPD-008, 6-(Cyclopropanecarboxamido)-4-((3-(1-(2-(3-(2-((2-(2,6-dioxopiperidin-3-yl)-1,3-dioxoisoindolin-4-yl)amino)ethoxy)propanamido)ethyl)-1H-1,2,4-triazol-3-yl)-2-methoxyphenyl)amino)-N-methylpyridazine-3-carboxamide], the “TYK2 Degradation (0.5 μM)” value is reported as at most 20%.

For the molecule `CNC(=O)c1nnc(NC(=O)C2CC2)cc1Nc1cccc(-c2ncn(CCNC(=O)CCOCCOCCNc3cccc4c3C(=O)N(C3CCC(=O)NC3=O)C4=O)n2)c1OC` (centres unmarked) [CPD-009, 6-(Cyclopropanecarboxamido)-4-((3-(1-(2-(3-(2-(2-((2-(2,6-dioxopiperidin-3-yl)-1,3-dioxoisoindolin-4-yl)amino)ethoxy)ethoxy)propanamido)ethyl)-1H-1,2,4-triazol-3-yl)-2-methoxyphenyl)amino)-N-methylpyridazine-3-carboxamide], the “TYK2 Degradation (0.5 μM)” value is reported as at most 20%.

On to `CNC(=O)c1nnc(NC(=O)C2CC2)cc1Nc1cccc(-c2ncn(CCNC(=O)CCOCCOCCOCCNc3cccc4c3C(=O)N(C3CCC(=O)NC3=O)C4=O)n2)c1OC` (centres unmarked) [CPD-010, 6-(Cyclopropanecarboxamido)-4-((3-(1-(1-((2-(2,6-dioxopiperidin-3-yl)-1,3-dioxoisoindolin-4-yl)amino)-12-oxo-3,6,9-trioxa-13-azapentadecan-15-yl)-1H-1,2,4-triazol-3-yl)-2-methoxyphenyl)amino)-N-methylpyridazine-3-carboxamide], for which the “TYK2 Degradation (0.5 μM)” value is reported as at most 20%.

Regarding `CNC(=O)c1nnc(NC(=O)C2CC2)cc1Nc1cccc(-c2ncn(CCNC(=O)CCOCCOCCOCCOCCNc3cccc4c3C(=O)N(C3CCC(=O)NC3=O)C4=O)n2)c1OC` (centres unmarked) [CPD-011, 6-(Cyclopropanecarboxamido)-4-((3-(1-(1-((2-(2,6-dioxopiperidin-3-yl)-1,3-dioxoisoindolin-4-yl)amino)-15-oxo-3,6,9,12-tetraoxa-16-azaoctadecan-18-yl)-1H-1,2,4-triazol-3-yl)-2-methoxyphenyl)amino)-N-methylpyridazine-3-carboxamide], the “TYK2 Degradation (0.5 μM)” value is listed as at most 20%.

Consider `CNC(=O)c1nnc(NC(=O)C2CC2)cc1Nc1cccc(-c2ncn(CCNC(=O)CCOCCOCCOCCOCCOCCNc3cccc4c3C(=O)N(C3CCC(=O)NC3=O)C4=O)n2)c1OC` (centres unmarked) [CPD-012, 6-(Cyclopropanecarboxamido)-4-((3-(1-(1-((2-(2,6-dioxopiperidin-3-yl)-1,3-dioxoisoindolin-4-yl)amino)-18-oxo-3,6,9,12,15-pentaoxa-19-azahenicosan-2l-yl)-1H-1,2,4-triazol-3-yl)-2-methoxyphenyl)amino)-N-methylpyridazine-3-carboxamide], for which the “TYK2 Degradation (0.5 μM)” value was at most 20%.

Consider `CNC(=O)c1nnc(NC(=O)C2CC2)cc1Nc1cccc(-c2ncn(CCNC(=O)CNc3ccc4c(c3)C(=O)N(C3CCC(=O)NC3=O)C4=O)n2)c1OC` (centres unmarked) [CPD-013, 6-(Cyclopropanecarboxamido)-4-((3-(1-(2-(2-((2-(2,6-dioxopiperidin-3-yl)-1,3-dioxoisoindolin-5-yl)amino)acetamido)ethyl)-1H-1,2,4-triazol-3-yl)-2-methoxyphenyl)amino)-N-methylpyridazine-3-carboxamide], for which the “TYK2 Degradation (0.5 μM)” value is at most 20%.

On to `CNC(=O)c1nnc(NC(=O)C2CC2)cc1Nc1cccc(-c2ncn(CCNC(=O)CCNc3ccc4c(c3)C(=O)N(C3CCC(=O)NC3=O)C4=O)n2)c1OC` (centres unmarked) [CPD-014, 6-(Cyclopropanecarboxamido)-4-((3-(1-(2-(3-((2-(2,6-dioxopiperidin-3-yl)-1,3-dioxoisoindolin-5-yl)amino)propanamido)ethyl)-1H-1,2,4-triazol-3-yl)-2-methoxyphenyl)amino)-N-methylpyridazine-3-carboxamide], for which the “TYK2 Degradation (0.5 μM)” value is on record as at most 20%.

As to `CNC(=O)c1nnc(NC(=O)C2CC2)cc1Nc1cccc(-c2ncn(CCNC(=O)CCCNc3ccc4c(c3)C(=O)N(C3CCC(=O)NC3=O)C4=O)n2)c1OC` (centres unmarked) [CPD-015, 6-(Cyclopropanecarboxamido)-4-((3-(1-(2-(4-((2-(2,6-dioxopiperidin-3-yl)-1,3-dioxoisoindolin-5-yl)amino)butanamido)ethyl)-1H-1,2,4-triazol-3-yl)-2-methoxyphenyl)amino)-N-methylpyridazine-3-carboxamide], the “TYK2 Degradation (0.5 μM)” value was at most 20%.

Regarding `CNC(=O)c1nnc(NC(=O)C2CC2)cc1Nc1cccc(-c2ncn(CCNC(=O)CCCCNc3ccc4c(c3)C(=O)N(C3CCC(=O)NC3=O)C4=O)n2)c1OC` (centres unmarked) [CPD-016, 6-(Cyclopropanecarboxamido)-4-((3-(1-(2-(5-((2-(2,6-dioxopiperidin-3-yl)-1,3-dioxoisoindolin-5-yl)amino)pentanamido)ethyl)-1H-1,2,4-triazol-3-yl)-2-methoxyphenyl)amino)-N-methylpyridazine-3-carboxamide], the “TYK2 Degradation (0.5 μM)” value is on record as at most 20%.

For `CNC(=O)c1nnc(NC(=O)C2CC2)cc1Nc1cccc(-c2ncn(CCNC(=O)CCCCCCNc3ccc4c(c3)C(=O)N(C3CCC(=O)NC3=O)C4=O)n2)c1OC` (centres unmarked) [CPD-017, 6-(Cyclopropanecarboxamido)-4-((3-(1-(2-(7-((2-(2,6-dioxopiperidin-3-yl)-1,3-dioxoisoindolin-5-yl)amino)heptanamido)ethyl)-1H-1,2,4-triazol-3-yl)-2-methoxyphenyl)amino)-N-methylpyridazine-3-carboxamide], the “TYK2 Degradation (0.5 μM)” value was at most 20%.
